Assay results published in US10517889B2, “Modulators of SMAD7 expression” (Ionis Pharmaceuticals, Inc., priority 2017, dated 2019).
Strand notation (5' to 3'): a small letter for the sugar, then the base; units joined by * are phosphorothioate-linked, units joined directly phosphodiester-linked; [ ] holds rarer units or linkages, { } end groups; capitals alone tell only the bases. k = constrained ethyl (cEt); [5mC] = 5-methylcytosine; d = 2'-deoxy (DNA)

Test system: human SMAD7 mRNA
Test: Antisense inhibition of human SMAD7 mRNA expression in Hep3B cells by 3-10-3 cEt gapmers, 10,000 nM, electroporation (Example 2)
Assay type: cell-based
Conditions: approximately 24 hours
Procedure, shortened: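 Percent inhibition of SMAD7 mRNA, relative to untreated cells, after ~24 h exposure of electroporated Hep3B cells to 10,000 nM cEt gapmer; levels by qRT-PCR, corrected for total RNA.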

[1] = Hep3B cells, 10,000 nM antisense oligonucleotide, electroporation, RT-PCR primer probe set RTS5062, relative to untreated control cells
[2] = Hep3B cells, electroporation with 10,000 nM antisense oligonucleotide, RTS5062, percent inhibition of SMAD7 mRNA relative to untreated control cells
[3] = Hep3B cells, electroporation with 10,000 nM antisense oligonucleotide, SMAD7 mRNA by RT-PCR (RTS5062), relative to untreated control cells

Substance | % Inhibition [1] [%] | % Inhibition [3] [%] | other results
799836 (antisense kA*kG*kA*dT*dA*dT*d[5mC]*dG*dG*d[5mC]*d[5mC]*d[5mC]*d[5mC]*k[5mC]*kT*kG) [compound 799836] |  |  | % inhibition of SMAD7 mRNA expression (Hep3B cells, electroporation, 10,000 nM antisense oligonucleotide, RTS5062, relative to untreated control cells): 61%
799837 (antisense kT*k[5mC]*kA*dT*dA*dA*dG*d[5mC]*dA*dT*dA*dG*dA*kT*kT*kT) [compound 799837] | 38 |  | 
799838 (antisense kT*kT*kG*d[5mC]*dA*d[5mC]*d[5mC]*d[5mC]*d[5mC]*d[5mC]*dA*dT*dA*kA*k[5mC]*kT) [compound 799838] | 2 |  | 
799839 (antisense kA*kG*k[5mC]*dA*d[5mC]*dA*dA*dT*dA*dT*dG*dA*dA*kT*kG*kT) [compound 799839] | 36 |  | 
799840 (antisense kA*kG*kG*dG*dA*dA*dG*dT*dT*dA*dG*dT*dG*kT*kT*kT) [compound 799840] | 22 |  | 
799841 (antisense kA*kA*kA*dG*dA*dA*dT*dG*dG*dT*dG*dG*dG*kT*kG*k[5mC]) [compound 799841] |  |  | % Inhibition [2]: 37%
799842 (antisense kG*kA*kA*dA*dG*dA*dA*dT*dG*dG*dT*dG*dG*kG*kT*kG) [compound 799842] |  |  | % Inhibition [2]: 16%
799843 (antisense kG*kG*kA*dG*dG*dA*dG*dG*d[5mC]*dA*dA*dA*dT*kT*k[5mC]*kA) [compound 799843] |  |  | % Inhibition [2]: 42%
799844 (antisense kA*kG*kA*dG*dG*dA*dG*dG*dA*dG*dG*d[5mC]*dA*kA*kA*kT) [compound 799844] |  |  | % Inhibition [2]: 11%
799845 (antisense kG*kA*kA*dG*dT*dA*d[5mC]*d[5mC]*dT*dA*dG*dA*dG*kG*kA*kG) [compound 799845] |  |  | % Inhibition [2]: 31%
799846 (kT*k[5mC]*k[5mC]*dA*d[5mC]*dT*dA*dT*dT*d[5mC]*dT*dA*dT*kG*kA*kA; antisense) [compound 799846] |  |  | % Inhibition [2]: 25%
799847 (kT*kT*k[5mC]*d[5mC]*dA*d[5mC]*dT*dA*dT*dT*d[5mC]*dT*dA*kT*kG*kA; antisense) [compound 799847] |  |  | % Inhibition [2]: 30%
799848 (kA*kG*k[5mC]*d[5mC]*dG*dA*dT*d[5mC]*dA*d[5mC]*dA*dA*dA*kA*kG*kG; antisense) [compound 799848] |  |  | % Inhibition [2]: 59%
799849 (kA*kT*kA*dA*dG*d[5mC]*d[5mC]*dG*dA*dT*d[5mC]*dA*d[5mC]*kA*kA*kA; antisense) [compound 799849] |  |  | % Inhibition [2]: 41%
799850 (kG*k[5mC]*kA*dA*dT*dA*dA*dA*dT*d[5mC]*dA*dA*d[5mC]*k[5mC]*kA*kG; antisense) [compound 799850] |  | 49 | 
799852 (k[5mC]*kA*kA*dG*dT*dG*dT*d[5mC]*d[5mC]*dA*dT*d[5mC]*dA*kA*kG*k[5mC]; antisense) [compound 799852] | 11 |  | 
799853 (k[5mC]*k[5mC]*kA*dA*dG*dT*dG*dT*d[5mC]*d[5mC]*dA*dT*d[5mC]*kA*kA*kG; antisense) [compound 799853] | 42 |  | 
799855 (kA*kG*k[5mC]*d[5mC]*dA*dA*dG*dT*dG*dT*d[5mC]*d[5mC]*dA*kT*k[5mC]*kA; antisense) [compound 799855] | 52 |  | 
799856 (kG*k[5mC]*kA*dA*dG*d[5mC]*d[5mC]*dA*dA*dG*dT*dG*dT*k[5mC]*k[5mC]*kA; antisense) [compound 799856] | 43 |  | 
799857 (kA*kG*kA*dA*d[5mC]*dT*dG*dA*dA*dA*dG*d[5mC]*dG*kG*k[5mC]*kG; antisense) [compound 799857] | 31 |  | 
799859 (kT*kG*kT*dA*dA*dT*dT*dT*dA*dG*d[5mC]*dA*dA*kT*kT*k[5mC]; antisense) [compound 799859] | 32 |  | 
799860 (kT*kG*k[5mC]*d[5mC]*dG*dA*d[5mC]*dA*d[5mC]*dA*dT*dG*dA*kG*kG*k[5mC]; antisense) [compound 799860] | 0 |  | 
799861 (kA*k[5mC]*k[5mC]*dG*d[5mC]*dA*dT*dG*d[5mC]*dG*dA*dT*d[5mC]*kG*kG*kT; antisense) [compound 799861] |  | 15 | 
799862 (k[5mC]*k[5mC]*k[5mC]*dA*d[5mC]*d[5mC]*dG*d[5mC]*dA*dT*dG*d[5mC]*dG*kA*kT*k[5mC]; antisense) [compound 799862] |  | 14 | 
799863 (kG*kG*k[5mC]*dT*d[5mC]*d[5mC]*d[5mC]*d[5mC]*d[5mC]*dA*d[5mC]*d[5mC]*dG*k[5mC]*kA*kT; antisense) [compound 799863] |  | 16 | 
799864 (k[5mC]*kT*k[5mC]*dA*dA*dG*d[5mC]*d[5mC]*d[5mC]*dA*d[5mC]*d[5mC]*d[5mC]*k[5mC]*kG*kG; antisense) [compound 799864] |  | 42 | 

Substance | % Inhibition [1] [%] | % Inhibition [3] [%] | other results
799865 (kG*kG*kG*dA*d[5mC]*dA*dG*dA*d[5mC]*dT*dG*dT*d[5mC]*k[5mC]*k[5mC]*k[5mC]; antisense) [compound 799865] |  | 0 | 
799866 (k[5mC]*kA*k[5mC]*d[5mC]*dG*d[5mC]*dG*d[5mC]*dA*dG*dG*dG*dA*k[5mC]*kA*kG; antisense) [compound 799866] |  | 0 | 
799867 (k[5mC]*kT*k[5mC]*d[5mC]*dA*dA*dT*d[5mC]*dT*dG*dG*d[5mC]*dT*kG*kG*kT; antisense) [compound 799867] |  | 24 | 
799868 (k[5mC]*kA*kT*dA*dA*dA*d[5mC]*dA*dT*dG*dG*dG*d[5mC]*kT*k[5mC]*k[5mC]; antisense) [compound 799868] |  | 34 | 
799869 (k[5mC]*k[5mC]*kA*dT*dA*dA*dA*d[5mC]*dA*dT*dG*dG*dG*k[5mC]*kT*k[5mC]; antisense) [compound 799869] |  | 16 | 
799870 (kA*k[5mC]*k[5mC]*d[5mC]*dA*dG*dA*dA*dG*d[5mC]*dT*dG*d[5mC]*kT*kG*kT; antisense) [compound 799870] |  | 18 | 
799871 (kT*kT*kG*dG*dA*d[5mC]*dA*d[5mC]*dA*d[5mC]*dT*d[5mC]*dA*k[5mC]*kT*kG; antisense) [compound 799871] | 0 |  | 
799872 (kA*kA*kG*dT*dT*dA*dA*dT*d[5mC]*dA*dT*dT*dA*k[5mC]*kT*kT; antisense) [compound 799872] | 0 |  | 
799873 (kA*kA*kA*dA*dG*dT*dT*dA*dA*dT*d[5mC]*dA*dT*kT*kA*k[5mC]; antisense) [compound 799873] | 0 |  | 
799874 (k[5mC]*kA*kG*dA*d[5mC]*dT*dG*dG*dA*dA*dA*dA*dG*kT*kT*kA; antisense) [compound 799874] | 0 |  | 
799875 (kG*kT*kG*d[5mC]*dA*dG*dA*d[5mC]*dT*dG*dG*dA*dA*kA*kA*kG; antisense) [compound 799875] | 41 |  | 
799876 (kG*k[5mC]*k[5mC]*dA*dG*dG*dG*d[5mC]*d[5mC]*dG*d[5mC]*dA*d[5mC]*kT*kG*kT; antisense) [compound 799876] | 55 |  | 
799877 (kA*k[5mC]*kT*dT*dT*dA*d[5mC]*dA*dA*d[5mC]*d[5mC]*d[5mC]*dA*kA*kT*kA; antisense) [compound 799877] | 52 |  | 
799879 (kT*kG*kG*dA*dA*dA*dA*dG*d[5mC]*dT*d[5mC]*d[5mC]*dT*kT*k[5mC]*kT; antisense) [compound 799879] | 3 |  | 
799880 (kT*k[5mC]*k[5mC]*dG*dA*dT*dG*dG*dA*dA*dA*dA*dG*k[5mC]*kT*k[5mC]; antisense) [compound 799880] | 39 |  | 
799881 (kA*kA*kT*dA*dA*dA*dT*dT*d[5mC]*d[5mC]*dA*dA*dT*kG*k[5mC]*kA; antisense) [compound 799881] |  | 0 | 
799882 (kT*kT*kT*dG*dA*dA*d[5mC]*dA*dT*dT*dT*dA*d[5mC]*kT*kG*k[5mC]; antisense) [compound 799882] |  | 41 | 
799883 (kT*k[5mC]*kT*dA*dG*dA*dG*dG*dG*dT*dA*dG*dG*kA*kA*kA; antisense) [compound 799883] |  | 9 | 
799884 (k[5mC]*kT*k[5mC]*d[5mC]*dA*dG*dT*dT*dT*d[5mC]*dT*dA*dG*kA*kG*kG; antisense) [compound 799884] |  | 0 | 
799885 (k[5mC]*k[5mC]*k[5mC]*d[5mC]*dA*d[5mC]*dA*dG*dA*dT*d[5mC]*d[5mC]*dA*kA*k[5mC]*kT; antisense) [compound 799885] |  | 0 | 
799886 (antisense kA*k[5mC]*k[5mC]*dA*dA*dG*d[5mC]*dT*dA*d[5mC]*dT*dT*dT*kT*kG*k[5mC]) [compound 799886] |  | 25 | 
799887 (antisense k[5mC]*kA*kG*dG*dA*d[5mC]*dA*dG*dT*dT*dT*dT*dT*k[5mC]*k[5mC]*k[5mC]) [compound 799887] |  | 29 | 
799888 (antisense kG*kG*kA*d[5mC]*dA*dA*dA*dA*d[5mC]*d[5mC]*d[5mC]*d[5mC]*dT*kA*kG*kA) [compound 799888] |  | 22 | 
799889 (antisense kA*kA*kA*dA*dG*dG*dA*d[5mC]*dA*dA*dA*dA*d[5mC]*k[5mC]*k[5mC]*k[5mC]) [compound 799889] |  | 45 | 
799890 (antisense k[5mC]*kA*kT*dT*dA*dA*dG*d[5mC]*d[5mC]*dA*dA*dT*dT*kT*kT*k[5mC]) [compound 799890] |  | 41 | 
799891 (antisense kA*kT*k[5mC]*dA*dT*dT*dA*dA*dG*d[5mC]*d[5mC]*dA*dA*kT*kT*kT) [compound 799891] | 0 |  | 
